Our source for the EC50 values is US20190381014A1, “ISOQUINOLINONE COMPOUNDS AND USE THEREOF IN PREPARATION OF ANTIVIRAL DRUGS” (Ginkgo Pharma Co., Ltd., priority 2016, published 2019).

This test has as its system HBsAg. In words: HBsAg inhibition in HepG2.2.15 culture supernatant (ELISA). The format is cell-based, HBV. The note with it: read-out: Activity in HBsAg inhibition, EC50. The protocol: Test method: HepG2.2.15 cell line was seeded into 96-well plates at 1.5×10^4 cells/well. On the following day, the cells were treated with a three-fold serial dilution series of the compounds at eight concentration points, and 2 duplicate wells were determined in parallel. The final DMSO concentration in the culture solution was 0.5%. On the fifth day, the culture solution was replaced with fresh solution containing the compounds. On the eighth day, the culture supernatant was collected and the HBsAg in the culture supernatant was detected by ELISA. The percent inhibition was calculated with respect to the blank control.
For orientation: In an ELISA, binding on a coated surface is turned into a signal by an enzyme label.

[1] abbreviates: Hepatitis B virus, HepG2.2.15, 192 h.
[2] abbreviates: HepG2.2.15 cells, supernatant on day 8, ELISA.

Broadly, the EC50 is the concentration that produces a half-maximal response.

Read-outs that look alike come from different tables or passages of the source.

As for `COCCCOc1cc2c(cc1OC)-c1cc(=O)c(C(=O)O)cn1C(C(C)C)C2` (racemic) [A-rac, reference compound], under setting [1], the half-maximal effective concentration (EC50) amounted to 8.21 nM.

As for `COc1cc2c(cc1O[C@H]1CCOC1)CC(C(C)C)n1cc(C(=O)O)c(=O)cc1-2` (mixture of isomers) [Compound I-1-rac, 6-isopropyl-10-methoxy-2-oxo-9-(((S)-tetrahydrofuran-3-yl)oxy)-6,7-dihydro-2H-pyrido[2,1-α]isoquinoline-3-carboxylic acid], the EC50 under setting [1] is 5.74 nM.

In the case of `COc1cc2c(cc1O[C@@H]1CCOC1)CC(C(C)C)n1cc(C(=O)O)c(=O)cc1-2` (mixture of isomers) [Compound I-2-rac, 6-isopropyl-10-methoxy-2-oxo-9-(((R)-tetrahydrofuran-3-yl)oxy)-6,7-dihydro-2H-pyrido[2,1-α]isoquinoline-3-carboxylic acid], the EC50 under setting [1] is 3.26 nM.

As for `COc1cc2c(cc1OC1CCOCC1)CC(C(C)C)n1cc(C(=O)O)c(=O)cc1-2` (racemic) [Compound I-3-rac, 6-isopropyl-10-methoxy-2-oxo-9-((tetrahydro-2H-pyran-4-yl)oxy)-6,7-dihydro-2H-pyrido[2,1-α]isoquinoline-3-carboxylic acid], the half-maximal effective concentration (EC50) under setting [2] was determined as 7.04 nM.

As to `COc1cc2c(cc1OC1COC1)CC(C(C)C)n1cc(C(=O)O)c(=O)cc1-2` (racemic) [Compound I-4-rac, 6-isopropyl-10-methoxy-9-(oxetan-3-yloxy)-2-oxo-6,7-dihydro-2H-pyrido[2,1-α]isoquinoline-3-carboxylic acid], under setting [1], the EC50 turned out to be 3.62 nM.

Take `COc1cc2c(cc1O[C@H]1C[C@H](OC)C1)CC(C(C)C)n1cc(C(=O)O)c(=O)cc1-2` (mixture of isomers) [Compound I-5-rac, 6-isopropyl-10-methoxy-9-((1R,3S)-3-methoxycyclobutoxy)-2-oxo-6,7-dihydro-2H-pyrido[2,1-α]isoquinoline-3-carboxylic acid]: the EC50 under setting [1] was 3.56 nM.

As to `COCC1(COc2cc3c(cc2OC)-c2cc(=O)c(C(=O)O)cn2C(C(C)C)C3)CC1` (racemic) [Compound I-6-rac, 6-isopropyl-10-methoxy-9-((1-(methoxymethyl)cyclopropyl)methoxy)-2-oxo-6,7-dihydro-2H-pyrido[2,1-α]isoquinoline-3-carboxylic acid], the EC50 under setting [1] came to 4.12 nM.

In the case of `COCC1(COc2cc3c(cc2OC)-c2cc(=O)c(C(=O)O)cn2C(C(C)C)C3)COC1` (racemic) [Compound I-7-rac, 6-isopropyl-10-methoxy-9-((3-(methoxymethyl)oxetan-3-yl)methoxy)-2-oxo-6,7-dihydro-2H-pyrido[2,1-α]isoquinoline-3-carboxylic acid], the EC50 under setting [1] came out at 4.68 nM.

`COc1cc2c(cc1OCC1CC(OC)C1)CC(C(C)C)n1cc(C(=O)O)c(=O)cc1-2` (racemic) [Compound I-8-rac, 6-isopropyl-10-methoxy-9-((3-methoxycyclobutyl)methoxy)-2-oxo-6,7-dihydro-2H-pyrido[2,1-α]isoquinoline-3-carboxylic acid]: under setting [1], the concentration for a half-maximal effect (EC50) turned out to be 5.59 nM.

As to `COc1cc2c(cc1OCCCC(C)=O)CC(C(C)C)n1cc(C(=O)O)c(=O)cc1-2` (racemic) [Compound I-9-rac, 6-isopropyl-10-methoxy-2-oxo-9-((4-oxopentyl)oxy)-6,7-dihydro-2H-pyrido[2,1-α]isoquinoline-3-carboxylic acid], the half-maximal effective concentration (EC50) under setting [1] was 3.71 nM.

With `COc1cc2c(cc1OC1CCCC1)CC(C(C)C)n1cc(C(=O)O)c(=O)cc1-2` (racemic) [Compound I-10-rac, 9-(cyclopentyloxy)-6-isopropyl-10-methoxy-2-oxo-6,7-dihydro-2H-pyrido[2,1-α]isoquinoline-3-carboxylic acid], under setting [1], the concentration giving a half-maximal response (EC50) amounted to 3.78 nM.

Consider `COc1cc2c(cc1C#CC1CC1)CC(C(C)C)n1cc(C(=O)O)c(=O)cc1-2` (racemic) [Compound I-11-rac, 9-(cyclopropylethynyl)-6-isopropyl-10-methoxy-2-oxo-6,7-dihydro-2H-pyrido[2,1-α]isoquinoline-3-carboxylic acid], for which the concentration for a half-maximal effect (EC50) under setting [1] was determined as 2.61 nM.

Take `CC(C)C1Cc2cc(O[C@@H]3CCOC3)c(Cl)cc2-c2cc(=O)c(C(=O)O)cn21` (mixture of isomers) [Compound I-22-rac, 10-chloro-6-isopropyl-2-oxo-9-(((R)-tetrahydrofuran-3-yl)oxy)-6,7-dihydro-2H-pyrido [2,1-α]isoquinoline-3-carboxylic acid]: the EC50 under setting [1] turned out to be 5.46 nM.

Take `CO[C@H]1C[C@H](Oc2cc3c(cc2Cl)-c2cc(=O)c(C(=O)O)cn2C(C(C)C)C3)C1` (mixture of isomers) [Compound I-23-rac, 10-chloro-6-isopropyl-9-((1R,3R)-3-methoxycyclobutoxy)-2-oxo-6,7-dihydro-2H-pyrido [2,1-α]isoquinoline-3-carboxylic acid]: the half-maximal effective concentration (EC50) under setting [1] stood at 6.83 nM.

In the case of `COCC1(COc2cc3c(cc2Cl)-c2cc(=O)c(C(=O)O)cn2C(C(C)C)C3)CC1` (racemic) [Compound I-24-rac, 10-chloro-6-isopropyl-9-((1-(methoxymethyl)cyclopropyl)methoxy)-2-oxo-6,7-dihydro-2H-pyrido[2,1-α]isoquinoline-3-carboxylic acid], the concentration giving a half-maximal response (EC50) under setting [2] was 5.78 nM.

Turning to `COCC1(COc2cc3c(cc2Cl)-c2cc(=O)c(C(=O)O)cn2C(C(C)C)C3)COC1` (racemic) [Compound I-25-rac, 10-chloro-6-isopropyl-9-((3-(methoxymethyl)oxetan-3-yl)methoxy)-2-oxo-6,7-dihydro-2H-pyrido[2,1-α]isoquinoline-3-carboxylic acid], the concentration for a half-maximal effect (EC50) under setting [1] amounted to 6.97 nM.

Take `COC1CC(COc2cc3c(cc2Cl)-c2cc(=O)c(C(=O)O)cn2C(C(C)C)C3)C1` (racemic) [Compound I-26-rac, 10-chloro-6-isopropyl-9-((3-methoxycyclobutyl)methoxy)-2-oxo-6,7-dihydro-2H-pyrido[2,1-α]isoquinoline-3-carboxylic acid]: the EC50 under setting [1] came out at 7.56 nM.

For the compound `COc1cc2c(cc1O[C@@H]1CCOC1)CC(C(C)(C)C)n1cc(C(=O)O)c(=O)cc1-2` (mixture of isomers) [Compound I-28-rac, 6-(tert-butyl)-10-methoxy-2-oxo-9-(((R)-tetrahydrofuran-3-yl)oxy)-6,7-dihydro-2H-pyrido[2,1-α]isoquinoline-3-carboxylic acid], the concentration giving a half-maximal response (EC50) under setting [2] is 5.78 nM.

As for `COc1cc2c(cc1O[C@H]1C[C@H](OC)C1)CC(C(C)(C)C)n1cc(C(=O)O)c(=O)cc1-2` (mixture of isomers) [Compound I-29-rac, 6-(tert-butyl)-10-methoxy-9-((1R,3R)-3-methoxycyclobutoxy)-2-oxo-6,7-dihydro-2H-pyrido[2,1-α]isoquinoline-3-carboxylic acid], the concentration for a half-maximal effect (EC50) under setting [1] was found to be 6.45 nM.

`COCC1(COc2cc3c(cc2OC)-c2cc(=O)c(C(=O)O)cn2C(C(C)(C)C)C3)CC1` (racemic) [Compound I-30-rac, 6-(tert-butyl)-10-methoxy-9-((1-(methoxymethyl)cyclopropyl)methoxy)-2-oxo-6,7-dihydro-2H-pyrido[2,1-α]isoquinoline-3-carboxylic acid]: the EC50 under setting [2] was 6.74 nM.

As to `COCC1(COc2cc3c(cc2OC)-c2cc(=O)c(C(=O)O)cn2C(C(C)(C)C)C3)COC1` (racemic) [Compound I-31-rac, 6-(tert-butyl)-10-methoxy-9-((3-(methoxymethyl)oxetan-3-yl)methoxy)-2-oxo-6,7-dihydro-2H-pyrido[2,1-α]isoquinoline-3-carboxylic acid], the EC50 under setting [1] came to 5.98 nM.

As to `COc1cc2c(cc1OCC1CC(OC)C1)CC(C(C)(C)C)n1cc(C(=O)O)c(=O)cc1-2` (racemic) [Compound I-32-rac, 6-(tert-butyl)-10-methoxy-9-((3-methoxycyclobutyl)methoxy)-2-oxo-6,7-dihydro-2H-pyrido[2,1-α]isoquinoline-3-carboxylic acid], the concentration for a half-maximal effect (EC50) under setting [1] was found to be 7.31 nM.

In the case of `COCC(C)(C)C1Cc2cc(O[C@@H]3CCOC3)c(OC)cc2-c2cc(=O)c(C(=O)O)cn21` (mixture of isomers) [Compound I-52-rac, 10-methoxy-6-(1-methoxy-2-methylpropan-2-yl)-2-oxo-9-(((R)-tetrahydrofuran-3-yl)oxy)-6,7-dihydro-2H-pyrido[2,1-α]isoquinoline-3-carboxylic acid], under setting [1], the EC50 turned out to be 7.57 nM.

Take `COCC(C)(C)C1Cc2cc(O[C@H]3C[C@H](OC)C3)c(OC)cc2-c2cc(=O)c(C(=O)O)cn21` (mixture of isomers) [Compound I-53-rac, 10-methoxy-6-(1-methoxy-2-methylpropan-2-yl)-9-((1R,3R)-3-methoxycyclobutoxy)-2-oxo-6,7-dihydro-2H-pyrido[2,1-α]isoquinoline-3-carboxylic acid]: the 50% effective concentration (EC50) under setting [1] turned out to be 6.65 nM.

For `COCC1(COc2cc3c(cc2OC)-c2cc(=O)c(C(=O)O)cn2C(C(C)(C)COC)C3)CC1` (racemic) [Compound I-54-rac, 10-methoxy-6-(1-methoxy-2-methylpropan-2-yl)-9-((1-(methoxymethyl)cyclopropyl)methoxy)-2-oxo-6,7-dihydro-2H-pyrido[2,1-α]isoquinoline-3-carboxylic acid], under setting [1], the EC50 was 5.34 nM.

With `COCC1(COc2cc3c(cc2OC)-c2cc(=O)c(C(=O)O)cn2C(C(C)(C)COC)C3)COC1` (racemic) [Compound I-55-rac, 10-methoxy-6-(1-methoxy-2-methylpropan-2-yl)-9-((3-(methoxymethyl)oxetan-3-yl)methoxy)-2-oxo-6,7-dihydro-2H-pyrido[2,1-α]isoquinoline-3-carboxylic acid], under setting [1], the concentration for a half-maximal effect (EC50) was found to be 7.23 nM.

For the compound `COCC(C)(C)C1Cc2cc(OCC3CC(OC)C3)c(OC)cc2-c2cc(=O)c(C(=O)O)cn21` (racemic) [Compound I-56-rac, 10-methoxy-6-(1-methoxy-2-methylpropan-2-yl)-9-((3-methoxycyclobutyl)methoxy)-2-oxo-6,7-dihydro-2H-pyrido[2,1-α]isoquinoline-3-carboxylic acid], under setting [1], the EC50 came out at 5.95 nM.
